Data from publication doi:10.1101/2025.11.04.686469, “Discovery of Host-Directed Small Molecules with Broad Anti-Leishmanial Efficacy” (bioRxiv, 2025).
In brackets after ≈: the same amount, converted by molar mass. Read-outs that look alike come from different tables or passages of the source.

Tests used:
[1] = tested on: intracellular L. mexicana amastigotes; test: microbe, parasite or virus in culture; format: cell-based, Leishmania mexicana; details: Leishmania mexicana, Macrophage, bone marrow derived macrophages, Giemsa staining
Description: (§1) Bone marrow derived macrophages (BMDMs) were isolated from BALB/c mice and cultured as previously described. Briefly, bone marrow was harvested from long bones of mice and the isolated cells were seeded at a concentration of 2 x 10^6 cells/mL in petri dishes with RPMI media supplemented with 10% FBS, 1% Penn-Strep and 10% L929 conditioned media (LCM). Completely differentiated BMDMs are obtained after 7 days of culture with media change every 2 days. Harvested cells were seeded onto 10 mm glass cover slips at 5 x 10^5 cells/ well of a 24 well plate in DMEM media (without LCM) and allowed to adhere overnight. BMDM cells are then infected overnight with LV82 L. donovani or L. mexicana (NR-51210) at a multiplicity of infection of 10. After infection, cells were washed three times with fresh media to remove extracellular promastigotes and treated with compounds for a 72-hour incubation. BMDM cells were then washed with phosphate buffered saline, fixed with ice-cold methanol, and stained with Giemsa (5% v/v in water). The cover slips with stained cells are mounted onto glass slides and imaged on EVOS XL (100X, Thermo Fisher Scientific). Leishmania amastigotes per 100 macrophages were determined in a blinded manner.

[2] = Effect of compounds on host cell viability (MTT); format: cell-based; details: human
In short: (§2)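 Viability was read as MTT reduction: 2 h with 0.5 mg/mL, formazan dissolved in isopropanol, A560 with 670 nm background subtracted. The macrophages were PMA-differentiated THP-1 cells (150 nM, 72 h), treated 24 h at 1–50 μM or, for some compounds, 72 h at 1–300 μM.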

[3] = tested on: extracellular L. mexicana promastigotes; test: Effect of compounds on promastigote viability (resazurin assay); format: cell-based, Leishmania mexicana; details: Leishmania mexicana, 72-hour incubation
Description: (§3) The effect of compounds on extracellular promastigotes was evaluated using a resazurin-based assay as described previously. In short, late log phase Leishmania promastigotes were seeded in a 96 well plate at 1 x 10^5 parasites per well and treated with drugs (0.5 – 200 μM) for 72 hours at 25°C. Ten microliters of resazurin (0.02% w/v) were added to the treated parasites to achieve a final concentration of 0.002% w/v and incubated for 24 hours. Viability of the promastigotes was assessed by fluorescence (excitation 544 nm, emission 590 nm, SpectraMax M2, Molecular Devices).

[4] = tested on: intracellular L. donovani amastigotes; test: Image-based (Giemsa staining) evaluation of intracellular anti-leishmanial activity in bone marrow derived macrophages; format: cell-based, Leishmania donovani
Description: as §1, with “Briefly, bone marrow was harvested from long bones of mice and the isolated cells were seeded at a concentration of 2 x 10^6 cells/mL in petri dishes with RPMI media supplemented with 10% FBS, 1% Penn-Strep and 10% L929 conditioned media (LCM).” left out, “BMDM cells are then infected overnight with LV82 L. donovani or L. mexicana (NR-51210) at a multiplicity of infection of 10.” left out

[5] = tested on: extracellular L. donovani promastigotes; test: Effect of compounds on promastigote viability (resazurin assay); format: cell-based, Leishmania donovani; details: for MIC50: 72-hour incubation
Description: as §3

[6] = tested on: intracellular L. donovani in WT and Lys K/O BMDMs; test: 197 target validation: Giemsa staining in BMDMs from wild-type and lysozyme knockout mice; format: cell-based, Leishmania donovani; details: WT vs Lys K/O BMDMs
From the text: B6.129P2-Lyz2^tm1(cre)Ifo/J mice[23] (stock #004781, herein termed ‘Lys K/O’) were obtained from Jackson Laboratory. This strain has a nuclear-localized Cre recombinase inserted into the first coding ATG of the lysozyme 2 gene (Lyz2) which eliminates endogenous Lyz2 gene function. Wildtype C57BL6/J mice (stock #000664) were obtained as a control.
Bone marrow derived macrophages (BMDMs) were isolated from both mice and cultured as described above in “Image-based Evaluation of Intracellular Anti-Leishmanial Activity”. BMDMs were seeded onto glass cover slips, infected with LV82 L. donovani at a multiplicity of infection of 1:10. Cells were washed to remove extracellular promastigotes and treated with compounds (197, amphotericin B) for a 72-hour incubation. BMDM cells were then washed with phosphate buffered saline, fixed with ice-cold methanol, and stained with Giemsa (5% v/v in water). The cover slips with stained cells are mounted onto glass slides and imaged on EVOS XL (100X, Thermo Fisher Scientific). Leishmania amastigotes per 100 macrophages were determined in a blinded manner.

[7] = tested on: intracellular L. donovani amastigotes; test: Luminescent-based evaluation of intracellular anti-leishmanial activity in THP-1 macrophages; format: cell-based, Leishmania donovani; details: for IC50: THP1 macrophages, luminescence assay, 72 hours of treatment, read-out: Intracellular L. donovani amastigotes Lum IC50; for Selectivity 24h LC50 / Lum IC50: host-directed effect vs cytotoxicity
In short: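 PMA-differentiated THP-1 macrophages (150 nM, 72 h) were infected 18 h with firefly luciferase-expressing L. donovani LV82 promastigotes, then washed. Infected cells were treated with compounds at 0.1-10 μM for 72 h. Surviving intracellular amastigotes were quantified by firefly luciferase luminescence after cell lysis and 10 min substrate incubation at room temperature.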

THP-1 macrophages = test: Effect of compounds on host cell viability (MTT); format: cell-based
In short: as §2

[8] = Leishmania donovani, Macrophage, 72 h, Giemsa staining, 72-hour incubation, read-out: Intracellular L. donovani amastigotes IC50
[9] = Leishmania donovani, Macrophage, Giemsa staining (Table 3), read-out: L. donovani Intracellular amastigotes IC50
[10] = Leishmania donovani, resazurin assay (Table 3), read-out: L. donovani Extracellular promastigotes MIC50
[11] = Leishmania donovani, resazurin assay, read-out: Extracellular L. donovani promastigotes MIC50
[12] = THP-1 macrophages, 72-hour incubation, MTT assay, read-out: 72 hr viability of THP-1 macrophages LC50
[13] = read-out: 24 hr viability of THP-1 macrophages 24h LC50, THP-1 macrophages, 24-hour incubation, MTT assay
[14] = Giemsa staining, 72-hour incubation, read-out: Intracellular L. donovani amastigotes IC50
[15] = resazurin assay, read-out: Extracellular L. donovani promastigotes MIC50

SMILES	IC50 [7] [nM]	CC50 (THP-1 macrophages; [12]) [nM]	CC50 (THP-1 macrophages; [13]) [nM]	IC50 [4, 14] [nM]	MIC50 [5, 15] [µM]	also measured
NCC(=O)Nc1ccc(-n2nc(C(F)(F)F)cc2-c2ccc3c(ccc4ccccc43)c2)cc1 [AR-12, reference compound]						IC50 [1]: 1500 nM; CC50 at 24 h [2]: 13300 nM; CC50 at 72 h [2]: 8600 nM; MIC50 [3]: 15.1 µM (≈ 6.95 µg/mL); IC50 [4, 8]: 2200 nM; IC50 [4, 9]: 2200 nM; MIC50 [5, 10]: 2.2 µM (≈ 1.01 µg/mL); MIC50 [5, 11]: 2.2 µM (≈ 1.01 µg/mL)
C[C@@H]1[C@H](O)[C@@H](C)/C=C/C=C/C=C/C=C/C=C/C=C/C=C/[C@H](O[C@@H]2O[C@H](C)[C@@H](O)[C@H](N)[C@@H]2O)C[C@@H]2O[C@](O)(C[C@@H](O)C[C@@H](O)[C@H](O)CC[C@@H](O)C[C@@H](O)CC(=O)O[C@H]1C)C[C@H](O)[C@H]2C(=O)O [Amphotericin B, reference compound]						anti-leishmanial activity in Lys K/O BMDMs [6]: retained its anti-leishmanial activity
N#Cc1cccc(CN2CCC(Nc3ccc(-n4nc(C(F)(F)F)cc4-c4ccc(-c5ccc(C(F)(F)F)cc5)cc4)cc3)C2)c1 (stereo not drawn) [Compound 53]						IC50 ([7]; Leishmania donovani, THP-1): 400 nM; Selectivity 24h LC50 / Lum IC50 [7]: >112.6; CC50 (THP-1 macrophages): > 300000 nM; reduction in macrophage viability (THP-1 macrophages; 72hr incubation up to 300μM): Neither compound had any reduction; CC50 at 24 h [2]: > 50000 nM; CC50 at 72 h [2]: > 300000 nM; MIC50 [3]: > 200 µM; IC50 [4, 8]: 1100 nM; IC50 [4, 9]: < 2000 nM; MIC50 [5, 10]: > 200 µM; MIC50 [5, 11]: > 200 µM; direct effect on extracellular promastigote viability ([5]; resazurin assay, strain not named for 53, L. donovani for 197): no direct effects
O=C(Nc1ccc(-n2cc(C(F)(F)F)nc2-c2ccc(-c3ccccc3)cc2)cc1)C1CCN(Cc2ccccc2)C1 (stereo not drawn) [Compound 86]	1400	8200	21900	600	3.2 (≈ 1.81 µg/mL)	
Oc1ccccc1CN1CCC(Nc2ccc(-n3nc(C(F)(F)F)cc3-c3ccc(-c4ccc(C(F)(F)F)cc4)cc3)cc2)C1 (stereo not drawn) [Compound 91]	1400	53400	> 50000	2400	56.3 (≈ 35.1 µg/mL)	
N[C@@H]1CCN(c2ccc(-n3nc(C(F)(F)F)cc3-c3ccc(-c4ccc(C(F)(F)F)cc4)cc3)cc2)C1 [Compound 129]	100	6200	6300	400	1.7 (≈ 0.878 µg/mL)	
N[C@H]1CCN(c2ccc(-n3nc(C(F)(F)F)cc3-c3ccc(-c4ccc(C(F)(F)F)cc4)cc3)cc2)C1 [Compound 130]	200	6400	4200	1600	2.1 (≈ 1.08 µg/mL)	
CC(C)(C)OC(=O)NC1CCN(c2ccc(-n3nncc3-c3ccc(C(F)(F)F)cc3)cc2)C1 (stereo not drawn) [Compound 133]	900	33900	29000	1700	13.0 (≈ 6.16 µg/mL)	
Oc1ccc(CNC2CCN(c3ccc(-n4nc(C(F)(F)F)cc4C4CCCCC4)cc3)CC2)cc1 [Compound 319]	800	7200	6400	3400	0.8 (≈ 0.399 µg/mL)	
N#Cc1ccc(CNCC(=O)Nc2ccc(-n3nc(C(F)(F)F)cc3C3CCCCC3)cc2)cc1 [Compound 354]						IC50 [1]: 3500 nM; IC50 ([7]; Leishmania donovani, THP-1): 500 nM; Selectivity 24h LC50 / Lum IC50 [7]: 44.9; CC50 at 24 h [2]: 22000 nM; CC50 at 72 h [2]: 20200 nM; MIC50 [3]: 30.7 µM (≈ 14.8 µg/mL); IC50 [4, 8]: 400 nM; IC50 [4, 9]: 400 nM; MIC50 [5, 10]: 22.1 µM (≈ 10.6 µg/mL); MIC50 [5, 11]: 22.1 µM (≈ 10.6 µg/mL)
FC(F)(F)c1ccc(-c2nc(C(F)(F)F)cn2-c2ccc(NC3CCNCC3)cc2)cc1 [Compound 408]	1500	25100	25400	2600	0.9 (≈ 0.409 µg/mL)	
